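Tested at 5 concentrations; 48 h exposure; 96-well plates; endpoints linearly interpolated, else capped at highest concentration. GI50 = concentration required for 50% inhibition of growth.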 Calls of active or inactive are those of the source. No stated cut-off is given here; in the data, active = GI50 up to about 1.1 µM and inactive = higher.
Legend:
Experiment in all cases: NCI-60 cell line screen, 48 h
[1] = system: OVCAR-4
[2] = system: PC-3
[3] = system: HCT-116
[4] = system: T47D
[5] = system: EKVX
[6] = system: Malme-3M
[7] = system: CCRF-CEM
[8] = system: MDA-MB-231
[9] = system: OVCAR-3
[10] = system: HL-60
[11] = system: TK-10
[12] = system: UO-31
[13] = system: MDA-MB-435
[14] = system: HT-29
[15] = system: NCI/ADR-RES
[16] = system: NCI-H226
[17] = system: IGROV-1
[18] = system: SN12C
[19] = system: RXF 393
[20] = system: ACHN

Measured: GI50

Nc1nnc(-c2ccco2)c(-c2ccco2)n1
inactive: [1] > 100 µM | [2] > 100 µM | [3] > 100 µM | [4] > 100 µM | [5] > 100 µM | [6] > 100 µM | [7] > 100 µM | [8] > 100 µM | [9] > 100 µM | [10] > 100 µM | [11] > 100 µM | [12] 49.9 µM | [13] > 100 µM | [14] > 100 µM | [15] > 100 µM | [16] > 100 µM | [17] > 100 µM | [18] > 100 µM | [19] > 100 µM | [20] > 100 µM

O=C(O)CCC(=O)C(=O)O [ALPHA-KETOGLUTARIC ACID]
inactive: [1] > 100 µM | [2] > 100 µM | [3] > 100 µM | [4] > 100 µM | [5] > 100 µM | [6] > 100 µM | [7] > 100 µM | [8] > 100 µM | [9] > 100 µM | [10] > 100 µM | [11] > 100 µM | [12] > 100 µM | [13] > 100 µM | [14] > 100 µM | [15] > 100 µM | [16] > 100 µM | [17] > 100 µM | [18] > 100 µM | [19] > 100 µM | [20] > 100 µM

Nc1cccnc1NCC1(CO)CCCC1
inactive: [1] > 100 µM | [2] > 100 µM | [3] > 100 µM | [4] > 100 µM | [5] > 100 µM | [6] > 100 µM | [7] > 100 µM | [8] > 100 µM | [9] > 100 µM | [10] > 100 µM | [11] > 100 µM | [12] > 100 µM | [13] > 100 µM | [14] > 100 µM | [15] > 100 µM | [16] > 100 µM | [17] > 100 µM | [18] > 100 µM | [19] > 100 µM | [20] > 100 µM

O=C1CCc2ccc(O)c(c2)Oc2ccc(cc2)C(Sc2ccccc2)CCO1 (stereo not given)
inactive: [1] 12.2 µM | [2] 6.32 µM | [3] 16.2 µM | [4] 7.74 µM | [5] 12.5 µM | [6] 13.9 µM | [7] 10.8 µM | [8] 3.85 µM | [9] 10.9 µM | [10] 17.7 µM | [11] 16 µM | [12] 14.4 µM | [13] 17.1 µM | [14] 15.9 µM | [15] 14.1 µM | [16] 15 µM | [17] 13.3 µM | [18] 15.8 µM | [19] 17.8 µM | [20] 15.1 µM

Cc1ccc(/C=N/Nc2ccc3ccccc3n2)s1
inactive: [1] 20.7 µM | [2] 13.2 µM | [3] 7.78 µM | [4] 8.28 µM | [5] 4.73 µM | [6] 14.9 µM | [7] > 100 µM | [8] 15.5 µM | [9] 5.58 µM | [10] 41.5 µM | [11] 22.1 µM | [12] > 100 µM | [13] 15.8 µM | [14] 7.46 µM | [15] 35.5 µM | [16] 80.7 µM | [17] 16.3 µM | [18] 13 µM | [19] 37.7 µM | [20] 17.3 µM

— ChEMBL document CHEMBL1201862, “PubChem BioAssay data set” (2004)
